Key:
Test in all cases: Cell-based tubulin polymerization assay
[1] = biological target: T1, tubulin in KB-31 cells (Homo sapiens, UniProt P07437); conditions: 2 hours, 0-1000 nM
T1 construct: decrease in the unpolymerized pool of tubulin in KB-31 cell lysates; endogenous in cells; host or cells: KB-31 human epidermoid carcinoma cells (intact cells or hypotonic lysates)
Procedure: (§1) Drug-induced changes in the ratios between unpolymerized and polymerized tubulin in intact and lysed cells, respectively, are assessed basically as described (Giannakakou et al, Int. J. Cancer 75: 57-63 (1998)). Briefly, for the assessment of cellular drug effects, 2×10^5 cells are seeded in a volume of 1 ml to maximally 6 wells per 24-well plate. After incubation for 18-24 hrs at 37° C. to allow for cell attachment, test substances are added to the cell culture medium to achieve the desired concentrations, followed by incubation of the cells for 2 hrs at 37° C. Final vehicle concentration is 1%. One plate at a time is then transferred to a dimmed tissue-culture hood and cells are washed twice with 1 ml of room-temperature phosphate-buffered saline lacking Ca^++ and Mg^++ (PBS/O). After careful removal of remaining PBS/O, 100 μl of room-temperature Hypotonic Lysis Buffer A (HLB/A: 20 mM Tris-HCl (pH 6.8), 1 mM Mg2Cl, 2 mM EGTA, 2 mM Pefabloc, 1 mM benzamidine, 10 μg/ml aprotinin, 10 μg/ml leupeptin, 0.5% Nonidet P-40) is added and plates are wrapped in aluminum foil to minimize artifacts due to light-driven tubulin polymerization. Following incubation for exactly 5 min at 37° C., cells are harvested by scraping and transferred to a room-temperature eppendorf tube. Harvested wells are washed once with 100 μl room temperature HLB/A and pooled with the corresponding initial samples. Tubes are vortexed for 5 seconds to aid cell lysis, followed by centrifugation for 10 min at room-temperature in a table-top centrifuge at 12′000×g to separate microtubules (pellet) from unpolymerized tubulin (supernatant). The supernatant is then carefully transferred to a fresh eppendorf tube and stored on ice until further processed. Meanwhile, the pelleted material is resuspended in 200 μl room-temperature Resuspension Buffer (RSB: 10 mM Tris-HCl (pH 7.5), 1.5 mM Mg2Cl, 2 mM EGTA, 1 mM Pefabloc, 1 mM benzamidine, 10 μg/ml aprotinin, 10 μg/ml leupeptin, 0.5% Nonidet P-40). Solubilization of the pellet is aided by placing the eppendorf tube for 30 seconds in a sonicator waterbath. […]

[2] = biological target: T2, tubulin in 298/D4/40 cells (Homo sapiens, UniProt P07437, T274P); conditions: 2 hours, up to 1000 nM
T2 construct: endogenous in cells; host or cells: 297/C5/0 and 298/D4/40 sublines of KB-31 (intact cells or hypotonic lysates)
T2 sequence (P07437 whole entry T274P): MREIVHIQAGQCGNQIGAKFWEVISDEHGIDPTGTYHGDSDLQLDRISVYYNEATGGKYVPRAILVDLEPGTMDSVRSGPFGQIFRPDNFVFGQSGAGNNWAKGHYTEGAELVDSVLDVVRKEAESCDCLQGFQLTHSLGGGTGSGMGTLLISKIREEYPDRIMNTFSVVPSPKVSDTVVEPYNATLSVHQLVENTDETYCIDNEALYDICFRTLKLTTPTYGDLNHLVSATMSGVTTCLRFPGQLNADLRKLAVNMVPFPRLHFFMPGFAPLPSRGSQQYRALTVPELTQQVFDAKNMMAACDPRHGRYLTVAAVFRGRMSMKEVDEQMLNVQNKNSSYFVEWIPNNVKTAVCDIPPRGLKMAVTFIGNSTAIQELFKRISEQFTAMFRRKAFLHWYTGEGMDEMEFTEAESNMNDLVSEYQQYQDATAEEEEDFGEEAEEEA
T2 sequence (P68363 whole entry partner): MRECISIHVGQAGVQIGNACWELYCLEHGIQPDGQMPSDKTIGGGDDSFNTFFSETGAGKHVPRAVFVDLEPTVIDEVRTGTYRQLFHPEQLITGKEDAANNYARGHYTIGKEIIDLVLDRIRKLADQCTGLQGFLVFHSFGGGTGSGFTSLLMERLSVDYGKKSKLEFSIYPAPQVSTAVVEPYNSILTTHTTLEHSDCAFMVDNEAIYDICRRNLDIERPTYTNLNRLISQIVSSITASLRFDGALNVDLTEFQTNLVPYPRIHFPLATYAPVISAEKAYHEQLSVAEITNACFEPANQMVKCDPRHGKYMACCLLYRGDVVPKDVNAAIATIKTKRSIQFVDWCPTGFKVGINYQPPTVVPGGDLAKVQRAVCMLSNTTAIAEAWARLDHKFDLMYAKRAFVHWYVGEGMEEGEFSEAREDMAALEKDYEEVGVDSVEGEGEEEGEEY
Procedure: as §1

[3] = biological target: T3, tubulin in 297/C5/0 cells (Homo sapiens, UniProt P07437, T274P); conditions: 2 hours, 0-1000 nM, vs KB-31
T3 construct: endogenous in cells; host or cells: 297/C5/0 and 298/D4/40 sublines of KB-31 (intact cells or hypotonic lysates)
T3 sequence (P07437 whole entry T274P): as the sequence (P07437 whole entry T274P) above
T3 sequence (P68363 whole entry partner): as the sequence (P68363 whole entry partner) above
Procedure: as §1

T1 sequence (P68363 whole entry): as the sequence (P68363 whole entry partner) above
T1 sequence (P07437 whole entry): as the sequence (P07437 whole entry T274P) above, with P274T counted along it

Question: Which results are given for C/C(=C\c1csc(C)n1)[C@@H]1C[C@@H]2O[C@@H]2CCC[C@H](C)[C@H](O)[C@@H](C)C(=O)C(C)(C)[C@@H](O)CC(=O)O1 [Epothilone A, epothilone A]?
Answer: unpolymerized tubulin in intact cells [1]: dose-dependent decrease in the unpolymerized pool of tubulin; epothilone A-mediated tubulin polymerization [2]: completely refractory; drug concentrations required to decrease the unpolymerized tubulin fraction [3]: significantly higher

Reference: US20070134744A1, “Epothilone resistant cell lines” (priority 2000, published 2007)
